# Experimental data from the OPERA property sets (Mansouri et al. 2018).
SMILES,boiling point [°C],log10 Henry constant (atm·m³/mol),log10 Koa,log10 Koc (L/kg),log10 biodegradation half-life (days),log10 vapour pressure (mmHg),melting point [°C],ready biodegradability,logP
c1ccc2c(c1)ccc1ccccc12,340,-4.37,7.57,4.35,1.62,-3.92,99.2,readily biodegradable,
CO[C@H](C(=O)c1ccccc1)c1ccccc1,,,,,,,49.5,,
Cc1cc(Cl)nc2ccccc12,296,,,,,,59,,
Cc1nnc(-c2ccccc2)c(=O)n1N,,,,2.17,,-8.19,,,
Cc1cc(O)ccc1N=Nc1ccccc1,,,,,,,109,,
CCCCCCCCCCCCCCCCCCCCCCCCCCCCCCCCCCC,490,,,,,-11.3,75,readily biodegradable,
CC(=O)OCC1=C[C@@H]2OC(=O)C3=COC(O[C@@H]4O[C@H](CO)[C@@H](O)[C@H](O)[C@H]4O)C1C32 (some centres not stated),,,,,,,132,,
O=C1NC(=O)c2c(Cl)c(Cl)c(Cl)c(Cl)c21,,,,,,,,not readily biodegradable,
CNC(=O)NC,269,,,,,,108,not readily biodegradable,
Clc1ccccc1Cl,180,-2.72,4.36,2.56,,0.134,-16.7,not readily biodegradable,
C=C(C)c1ccc(C(C)(C)N=C=O)cc1,,,,,,-2.33,,,
CN(C)CCCN(C)C,144,,,,,,,,
C#CC(C)(C)NC(=O)c1ccc(Cl)cc1,,,,1.9,,,,,
Cc1cccc(-c2cccc(C)c2)c1,280,,,,,,9,,
COc1cc(NS(=O)(=O)c2ccc(N)cc2)nc(C)n1,,,,,,,146,,
CC(C)NCCO,173,,,,,,128,,
COC(=O)CCC(=O)O,,,,,,,58,,
CCCCCCC(C)Cl (configuration not stated),172,,,,,0.136,,,
O=C1c2cc3ccccc3cc2-c2ccc3ccccc3c21,,,,,,,214,,
CC(C)(C)CC(C)(C)S,160,,,,,0.716,-74,,

SMILES,boiling point [°C],log10 Henry constant (atm·m³/mol),log10 Koa,log10 Koc (L/kg),log10 biodegradation half-life (days),log10 vapour pressure (mmHg),melting point [°C],ready biodegradability,logP
Clc1cc2c(cc1Cl)Oc1cc(Cl)c(Cl)cc1O2,,,10.1,6.5,,-8.82,305,not readily biodegradable,
O=S(=O)(Cl)c1c(F)c(F)c(F)c(F)c1F,210,,,,,,,,
CCO[Si](CC)(OCC)OCC,158,,,,,,,,
CC(C)C1CC=C(C=O)CC1 (configuration not stated),223,,,,,,,,
O=C(OCc1ccccc1)c1sc(Cl)nc1C(F)(F)F,,,,,,-6.53,52,,
C/C=C/C/C=C/CCC(=O)[C@H]1O[C@H]1C(N)=O,,,,,,,93.5,,
Brc1cn[nH]c1,255,,,,,,94.5,,
O=C(OC[C@H]1O[C@](O)(COC(=O)c2cccnc2)[C@@H](OC(=O)c2cccnc2)[C@@H]1OC(=O)c1cccnc1)c1cccnc1,,,,,,,141,,
CCOP(=S)(OCC)SCSC(C)(C)C,,,,2.82,,-3.49,-29.2,,
C=CCO,97,-5.3,,,,1.42,-129,readily biodegradable,
CC[C@H]1CC[C@H](C)NC1,,,,,,0.458,,,
OCC(Cl)CCl (configuration not stated),184,,,,,,,,
C=CC(F)(F)F,-17,,,,,3.64,,,
Nc1cc([N+](=O)[O-])ccc1O,,,,,,,144,,
COC(=O)CCS,166,,,,,,,readily biodegradable,
O=C(O)[C@@H](CO)c1ccccc1,,,,,,,118,,
COc1cc(Cl)c(Cl)c(Cl)c1Cl,,,,,,,84,,
C[SiH](Cl)Cl,41,,,,,2.63,-93,,
CCCCC(C)(CC)CC,164,,,,,,,,
O=C(Cl)C(=O)Cl,63.5,,,,,,-16,,

SMILES,boiling point [°C],log10 Henry constant (atm·m³/mol),log10 Koa,log10 Koc (L/kg),log10 biodegradation half-life (days),log10 vapour pressure (mmHg),melting point [°C],ready biodegradability,logP
C=CC(C)(CCC=C(C)C)OC(=O)C(C)C (configuration not stated),229,,,,,,,,
CCCCCOC(=O)CCCCC,226,,,,,,-47,,
c1ccc(N2CCCCC2)cc1,258,,,,,,4.7,,
CCOC(=O)CC(C)=O,181,,,,,-0.108,-45,,
CC(=O)c1ccc(C#N)cc1,,,,,,,57.5,,
O=C(c1ccccc1)C(F)(F)F,153,,,,,,-40,,
FCc1ccccc1,140,,,,,0.832,-35,,
Cc1ccc(C(C)C)c(OC(=O)NCCC(C)C)c1,,,,,,,57,,
c1ccc(-c2oc(-c3ccccc3)c(-c3ccccc3)c2-c2ccccc2)cc1,,,,,,,175,,
COC(=O)CCCBr,186,,,,,,,,
O=P(O)(O)CCCl,,,,0,,-7.01,74.2,,
CCCCCCCCOC(=O)CCCCCCC,307,,,,,,-18.1,,
OCCC(O)CO (configuration not stated),312,,,,,,,,
Brc1cc(Br)c(Oc2c(Br)cc(Br)c(Br)c2Br)cc1Br,,,,,,,,,8.27
CCCCCCCCOC(=O)CCCCCCCCC(=O)OCCCCCCCC,,,,,,,,readily biodegradable,
CCc1cccc2c3c([nH]c12)C(CC)(CC(=O)O)OCC3 (configuration not stated),,,,,,,146,,
CC(=O)OC(OC(C)=O)c1ccco1,220,,,,,,53.3,,
CC[Si](F)(CC)CC,110,,,,,1.57,,,
